Measurements published in ChEMBL document CHEMBL2331448, “Optimization of potent and selective dual mTORC1 and mTORC2 inhibitors: the discovery of AZD8055 and AZD2014” (Bioorg Med Chem Lett, 2013).

Columns and labels:
[1] = Lipophilicity, log D of the compound; type: physicochemical; conditions: octanol/water
[2] = Clearance in human hepatocytes assessed per 10^6 cells; type: ADME, cell-based, Hepatocyte; conditions: read-out: CLH
[3] = Clearance in rat at 4 umol/kg, iv; type: ADME, organism-based; conditions: in vivo
[4] = Clearance in CD1 mouse at 10 umol/kg, iv; type: ADME, organism-based; conditions: in vivo
[5] = Oral bioavailability in CD1 mouse at 20 umol/kg; type: ADME, organism-based; conditions: in vivo
[6] = Oral bioavailability in rat; conditions: in vivo
[7] = test system: MDR1; experiment: Apparent permeability from basolateral to apical side of MDCK2 cells expressing human MDR1 at 10 uM; type: ADME, cell-based, Canis lupus familiaris, MDCK-II; conditions: dog, MDCK-MDR1
[8] = test system: MDR1; experiment: Apparent permeability from apical to basolateral side of MDCK2 cells expressing human MDR1 at 10 uM; type: ADME, cell-based, Canis lupus familiaris, MDCK-II; conditions: dog, MDCK-MDR1
[9] = Oral bioavailability in rat at 6 umol/kg; type: ADME, organism-based; conditions: in vivo
[10] = Clearance in rat at 1 umol/kg, iv; type: ADME, organism-based; conditions: in vivo

SMILES: C[C@@H]1CN(c2nc(N3CCOC[C@@H]3C)c3ccc(-c4ccccc4)nc3n2)C[C@H](C)O1
- logD [1]: 3.75

SMILES: COc1ccc(-c2ccc3c(N4CCOC[C@@H]4C)nc(N4CCOC[C@@H]4C)nc3n2)cc1C(=O)N(C)C
- hepatocyte CLint [2]: 4.3 µL/min/1e6 cells

SMILES: CNC(=O)c1cc(-c2ccc3c(N4CCOC[C@@H]4C)nc(N4CCOC[C@@H]4C)nc3n2)ccc1OC(F)F
- hepatocyte CLint [2]: 14.9 µL/min/1e6 cells

SMILES: C[C@@H]1CN(c2nc(N3CCOC[C@@H]3C)c3ncc(-c4ccccc4)nc3n2)C[C@H](C)O1
- logD [1]: > 4

SMILES: CNC(=O)c1cccc(-c2ccc3c(N4CCOC[C@@H]4C)nc(N4CCOC[C@@H]4C)nc3n2)c1 [VISTUSERTIB]
- clearance [3]: 12.6 mL/min/kg
- clearance [4]: 10.4 mL/min/kg
- bioavailability [5]: > 100%
- hepatocyte CLint [2]: < 4.2 µL/min/1e6 cells
- logD [1]: 3.16
- bioavailability [6]: 40%

SMILES: COc1ccc(-c2ccc3c(N4CCOCC4)nc(N4C[C@@H](C)O[C@@H](C)C4)nc3n2)cc1CNCCO
- Papp B→A at 10 µM [7]: 16.6 ×10⁻⁶ cm/s
- Papp A→B at 10 µM [8]: 45.3 ×10⁻⁶ cm/s

SMILES: C[C@H]1COCCN1c1nc(N2CCOC[C@@H]2C)c2ccc(-c3ccc4nc[nH]c(=O)c4c3)nc2n1
- hepatocyte CLint [2]: 176 µL/min/1e6 cells

SMILES: COc1ccc(-c2ccc3c(N4CCOC[C@@H]4C)nc(N4CCOC[C@@H]4C)nc3n2)cc1CO [AZD-8055]
- clearance [3]: 36.6 mL/min/kg
- clearance [4]: 42.8 mL/min/kg
- bioavailability [5]: 81%
- hepatocyte CLint [2]: 36.4 µL/min/1e6 cells
- logD [1]: 3.23
- bioavailability [6]: 12%

SMILES: COc1ccc(-c2ccc3c(N4CCOC[C@@H]4C)nc(N4CCOC[C@@H]4C)nc3n2)cc1C(C)O (some centres undefined)
- hepatocyte CLint [2]: 37.8 µL/min/1e6 cells

SMILES: CNC(=O)c1cc(-c2ccc3c(N4CCOC[C@@H]4C)nc(N4CCOC[C@@H]4C)nc3n2)ccc1OC
- hepatocyte CLint [2]: 14.3 µL/min/1e6 cells

SMILES: COc1ccc(-c2ccc3c(N4CCOCC4)nc(N4C[C@@H](C)O[C@@H](C)C4)nc3n2)cc1CO [Ku-0063794]
- Papp B→A at 10 µM [7]: 15 ×10⁻⁶ cm/s
- Papp A→B at 10 µM [8]: 2.6 ×10⁻⁶ cm/s
- bioavailability [9]: 33%
- clearance [10]: 35.8 mL/min/kg
- clearance [4]: 3.1 mL/min/kg
- bioavailability [5]: 61%

SMILES: C[C@H]1COCCN1c1nc(N2CCOC[C@@H]2C)c2ccc(-c3cccc(C(=O)NCCO)c3)nc2n1
- hepatocyte CLint [2]: < 5.4 µL/min/1e6 cells

SMILES: COc1ccc(-c2ccc3c(N4CCOC[C@@H]4C)nc(N4CCOC[C@@H]4C)nc3n2)cc1C(N)=O
- hepatocyte CLint [2]: 33.2 µL/min/1e6 cells
